Results from US20190194148A1, “TETRAZOLE-CONTAINING 1,2-CYCLOPROPANE-CARBOXAMIDES” (Bayer Pharma Aktiengesellschaft, priority 2017, published 2019).

molecular target: T1, human B1 receptor (Homo sapiens, UniProt P46663); experiment: Calcium flux assay (FLIPR) with recombinant CHO-K1 cells expressing human B1 receptor; format: cell-based; settings: absence of 0.1% BSA in assay buffer, read-out: hB1 free IC50
T1 construct: host or cells: CHO-K1
T1 sequence (P46663 1-353): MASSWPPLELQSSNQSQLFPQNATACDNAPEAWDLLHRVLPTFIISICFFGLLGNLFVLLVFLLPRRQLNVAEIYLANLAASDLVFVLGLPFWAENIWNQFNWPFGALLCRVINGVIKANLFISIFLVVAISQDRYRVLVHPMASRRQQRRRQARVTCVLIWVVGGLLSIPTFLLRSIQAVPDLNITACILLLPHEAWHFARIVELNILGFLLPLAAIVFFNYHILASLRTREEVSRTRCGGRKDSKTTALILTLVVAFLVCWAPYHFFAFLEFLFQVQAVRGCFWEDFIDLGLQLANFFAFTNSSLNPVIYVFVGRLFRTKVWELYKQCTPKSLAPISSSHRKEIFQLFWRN
Description: The potency to inhibit the Bradykinin B1 receptors was determined for the example compounds of this invention in a cell-based fluorescent calcium-mobilisation assay. The assay measures the ability of example compounds to inhibit Bradykinin B1 receptor agonist-induced increase of intracellular free Ca^2+ in the cell line expressing B1 receptor. Specifically, calcium indicator-loaded cells are pre-incubated in the absence or presence of different concentrations of example compounds followed by the stimulation with a selective B1 receptor agonist peptide. The change of the intracellular Ca^2+ concentration is monitored with a fluorescent plate reader FLIPR (Molecular Devices).
Calcium Flux Assays (FLIPR) with Cells Expressing Bradykinin B1 Receptor Calcium Flux Assay (FLIPR) with Recombinant Cells for Bradykinin B1 Receptor Antagonist, Either in the Presence (hB1 IC50) or Absence (hB1 free IC50) of 0.1% Bovine Serum Albumin (BSA) in Assay Buffer
CHO-K1 cell line expressing human B1 receptor was purchased from Euroscreen (Gosselies, Belgium, with reference name hB1-D1). The cells were grown in Nutrient Mixture Ham's F12 (Sigma) containing 10% Foetal bovine serum (Sigma) and 400 μg/mL G418 (Sigma), 5 μg/mL puromycin (Sigma).
For the calcium flux assay, 80% confluent cells were detached from the culture vessels with Versene (Gibco), and seeded into 384-well plates (Cell binding Surface; Corning, N.Y.; #3683) at a density of 15,000 cells per well. Cells were seeded in a volume of 50 μL in medium without antibiotics and incubated overnight in a humidified atmosphere with 5% CO2 at 37° C. […] The calcium indicator loaded cells were incubated at 37° C. for 2 hrs. Extracellular dye was then removed and each well was filled with 45 μL of assay buffer. Cell plates were kept in dark until used. Example compounds were assayed at 8 concentrations in triplicate. Serial 10-fold dilutions in 100% DMSO were made at a 100-times higher concentration than the final concentration, and then diluted 1:10 in assay buffer. 5 μL of each diluted compound was added to the well of cell plates (yielding final concentration with 1% DMSO), and incubated for 30 min at 28° C. before the addition of B1 receptor agonist on the FLIPR instrument.
Agonist plates contained the agonist Lys-(Des-Arg)-Bradykinin (Bachem, Brackley) at 3.5×EC90 in assay buffer with 1% DMSO. The addition of agonist 20 μl per well to the assay plate was carried out on the FLIPR instrument while continuously monitoring Ca^2+-dependent fluorescence at 538 nm. A peptide antagonist Lys-(Des-Arg-Leu)-Bradykinin (Bachem, Brackley) at 20 μM was used to determine the full inhibition as control.
Peak fluorescence was used to determine the response to agonist obtained at each concentration of example compound by the following equation:
% Response=100*(RFU(example compound)−RFU(control)/(RFU(DMSO)−RFU(control)
Control=full inhibition by the peptide antagonist Lys-(Des-Arg-Leu)-Bradykinin at 20 μM
The response values were plotted against the logarithm of the compound concentrations. The compounds were tested in triplicates per plate and mean values were plotted in Excel XLfit to determine IC50 values, percentage of maximal inhibition and the Hill slopes.

| IC50 [nM] | SMILES |
| --- | --- |
| 2210 | O=C(Nc1ccc(-n2cc(C(F)(F)F)cn2)c(-c2nnn[nH]2)c1)C1CC1c1ccccc1 (racemic) [Example 43, 2-Phenyl-N-{3-(1H-tetrazol-5-yl)-4-[4-(trifluoromethyl)-1H-pyrazol-1-yl]phenyl}cyclopro-panecarboxamide] |
| 26 | CC(C)(C)c1cnn(-c2ccc(NC(=O)C3CC3c3ccc(Cl)cc3)cc2-c2nnn[nH]2)c1 (racemic) [Example 44, N-[4-(4-tert-butyl-1H-pyrazol-1-yl)-3-(1H-tetrazol-5-yl)phenyl]-2-(4-chlorophenyl)cyclopro-panecarboxamide] |
| 463 | CC(C)(C)c1ccn(-c2ccc(NC(=O)C3CC3c3ccc(Cl)cc3)cc2-c2nnn[nH]2)n1 (racemic) [Example 45, N-[4-(3-tert-butyl-1H-pyrazol-1-yl)-3-(1H-tetrazol-5-yl)phenyl]-2-(4-chlorophenyl)cyclopro-panecarboxamide] |
| 1180 | O=C(Nc1ccc(-n2cc(C(F)(F)F)cn2)c(-c2nnn[nH]2)c1)C1CC1c1ccc(Cl)cc1 (racemic) [Example 46, 2-(4-Chlorophenyl)-N-{3-(1H-tetrazol-5-yl)-4-[4-(trifluoromethyl)-1H-pyrazol-1-yl]phenyl}cyclopropane-carboxamide] |

same assay, conditions: presence of 0.1% BSA in assay buffer, read-out: hB1 IC50

| SMILES | IC50 [nM] |
| --- | --- |
| COCc1ccc(-c2ccc(NC(=O)C3CC3C3CCCCC3)cc2-c2nnn[nH]2)cc1C (racemic) [Example 33, 2-cyclohexyl-N-[4′-(methoxymethyl)-3′-methyl-2-(1H-tetrazol-5-yl)biphenyl-4-yl]cyclo-propanecarboxamide] | 28 |
| COc1ccc(-c2ccc(NC(=O)C3CC3c3ccc(Cl)cc3)cc2-c2nnn[nH]2)cc1C (racemic) [Example 34, 2-(4-chlorophenyl)-N-[4′-methoxy-3′-methyl-2-(1H-tetrazol-5-yl)biphenyl-4-yl]cyclopropanecarbox-amide] | 232 |
| COc1ccc(-c2ccc(NC(=O)C3CC3c3ccc(C)cc3)cc2-c2nnn[nH]2)cc1 (racemic) [Example 36, N-[4′-methoxy-2-(1H-tetrazol-5-yl)biphenyl-4-yl]-2-(4-methylphenyl)cyclopro-panecarboxamide] | 662 |
| COc1ccc(-c2ccc(NC(=O)C3CC3C3CCCCC3)cc2-c2nnn[nH]2)cc1 (racemic) [Example 37, 2-cyclohexyl-N-[4′-methoxy-2-(1H-tetrazol-5-yl)biphenyl-4-yl]cyclopropanecarbox-amide] | 469 |
| COCc1ccc(-c2ccc(NC(=O)C3CC3c3ccc(Cl)cc3)cc2-c2nnn[nH]2)cc1 (racemic) [Example 38, 2-(4-chlorophenyl)-N-[4′-(methoxymethyl)-2-(1H-tetrazol-5-yl)biphenyl-4-yl]cyclopropanecarbox-amide] | 1470 |

The next lines start with the values.

| IC50 [nM] | SMILES |
| --- | --- |
| 1230 | COc1ccc(-c2ccc(NC(=O)C3CC3c3ccc(Cl)cc3)cc2-c2nnn[nH]2)cc1Cl (racemic) [Example 39, N-[3′-chloro-4′-methoxy-2-(1H-tetrazol-5-yl)biphenyl-4-yl]-2-(4-chlorophenyl)cyclopro-panecarboxamide] |
| 1030 | COc1ccc(-c2ccc(NC(=O)C3CC3C3CCCCC3)cc2-c2nnn[nH]2)cc1Cl (racemic) [Example 40, N-[3′-chloro-4′-methoxy-2-(1H-tetrazol-5-yl)biphenyl-4-yl]-2-cyclohexylcyclopropane-carboxamide] |
| 33 | O=C(Nc1ccc(-c2ccc(OC(F)(F)F)cc2)c(-c2nnn[nH]2)c1)C1CC1c1ccc(Cl)cc1 (racemic) [Example 41, 2-(4-chlorophenyl)-N-[2-(1H-tetrazol-5-yl)-4′-(trifluoro-methoxy)biphenyl-4-yl]cyclopropanecarbox-amide] |
| 31 | O=C(Nc1ccc(-c2ccc(OC(F)(F)F)cc2)c(-c2nnn[nH]2)c1)C1CC1C1CCCCC1 (racemic) [Example 42, 2-cyclohexyl-N-[2-(1H-tetrazol-5-yl)-4′-(trifluoro-methoxy)biphenyl-4-yl]cyclopropanecarbox-amide] |
